Assay results from ChEMBL document CHEMBL5604063, “ASAP - DENV-2 NS2B-NS3 protease fluorescence dose response” (2024).
Several values for one entry are separate records, joined by “and”; a condition that tells them apart may be missing. Equal values may be shown once.

How the values were obtained:
[1] = target: T1, Genome polyprotein (dengue virus type 2, UniProt P29990); type: functional, Thailand/16681/1984
[2] = target: T1, Genome polyprotein; type: functional, Thailand/16681/1984; remark: listed apart in the source

T1 sequence (P29990 1346-1475 limits assumed): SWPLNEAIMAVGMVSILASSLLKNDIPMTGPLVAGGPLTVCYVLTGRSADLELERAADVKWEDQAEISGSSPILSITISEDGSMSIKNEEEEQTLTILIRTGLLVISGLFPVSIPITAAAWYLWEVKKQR
T1 sequence (P29990 1476-2093 limits assumed): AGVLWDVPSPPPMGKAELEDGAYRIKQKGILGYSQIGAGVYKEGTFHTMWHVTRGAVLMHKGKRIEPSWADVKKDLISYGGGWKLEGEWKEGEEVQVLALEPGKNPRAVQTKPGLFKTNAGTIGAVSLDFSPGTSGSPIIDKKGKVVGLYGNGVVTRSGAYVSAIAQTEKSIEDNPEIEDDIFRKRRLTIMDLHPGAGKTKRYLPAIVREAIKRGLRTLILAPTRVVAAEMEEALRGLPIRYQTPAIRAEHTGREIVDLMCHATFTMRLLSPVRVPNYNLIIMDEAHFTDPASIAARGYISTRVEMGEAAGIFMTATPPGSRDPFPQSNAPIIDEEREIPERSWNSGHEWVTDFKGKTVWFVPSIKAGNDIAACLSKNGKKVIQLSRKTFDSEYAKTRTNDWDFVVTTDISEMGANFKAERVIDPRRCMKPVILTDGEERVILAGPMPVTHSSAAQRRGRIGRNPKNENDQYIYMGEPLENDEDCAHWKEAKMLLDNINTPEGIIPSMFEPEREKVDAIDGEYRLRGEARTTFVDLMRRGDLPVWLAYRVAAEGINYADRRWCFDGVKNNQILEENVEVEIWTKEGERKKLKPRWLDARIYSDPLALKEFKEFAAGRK

| SMILES | IC50 [1] | IC50 [2] |
| --- | --- | --- |
| O=C(Nc1ccc2c(c1)CNC2)c1ccc2c(c1)NCCO2 | > 100 µM | > 99.5 µM |
| C[C@@H](N)c1ccc(NC(=O)c2cc(Cl)cc3[nH]ncc23)cc1 | > 100 µM | > 99.5 µM |
| CCCN1C(=O)[C@](C#N)(Nc2cccc(-c3nn[nH]n3)c2)c2cc(Cl)ccc21 | > 100 µM | > 99.5 µM |
| CN(C(=O)c1cc(Cl)cc2[nH]ncc12)c1ccc2c(c1)CNC2 | > 100 µM | > 99.5 µM |
| O=C(Nc1ccc2c(c1)CNC2)c1ccccc1-n1cccc1 | > 100 µM | > 99.5 µM |
| O=C(Nc1ccc2c(c1)CNC2)c1ccn[nH]1 | > 100 µM | > 99.5 µM |
| O=c1[nH]c2cc(Cl)ccc2n1Cc1ccc(-c2nn[nH]n2)cc1 | > 100 µM | > 99.5 µM |
| O=C(Nc1ccc2c(c1)CNC2)C1CCCCC1 | > 100 µM | > 99.5 µM |
| C[C@H]1NCCc2c(-c3ccc4[nH]c(C(=O)O)cc4c3)cc(F)cc21 | > 100 µM | > 99.5 µM |
| CCOC(=O)N1CCC[C@H]1c1cccc(-c2ccc3[nH]c(C(=O)O)cc3c2)c1 | > 100 µM | > 99.5 µM |
| CNC(=O)[C@H](Nc1ccc2c(c1)CNC2)c1cccc2[nH]ncc12 | > 100 µM | 81.3 µM |
| NCc1nc2cc(Cl)ccc2n1Cc1ccc(-c2nn[nH]n2)cc1 | > 100 µM | > 99.5 µM |
| FC(F)(F)Oc1cc(Cl)cc2c(Cc3ccc(-c4nnn[nH]4)cc3)c[nH]c12 | 7.84 µM | 12.6 µM |
| CCCN1C(=O)[C@](C#N)(Nc2ccc3c(c2)CNC3)c2ccccc21 | > 100 µM | > 99.5 µM |
| O=C1Cc2c(cccc2C(=O)Nc2ccc3c(c2)CNC3)N1 | 45.6 µM and 19.1 µM | 11.8 µM and 17.4 µM and 20.7 µM |
| CNCc1ccc(NC(=O)c2cc(Cl)cc3[nH]ncc23)cc1 | > 100 µM | > 99.5 µM |

| SMILES | IC50 [1] | IC50 [2] |
| --- | --- | --- |
| Cc1c(C(=O)Nc2cc(CCCN)ccn2)cc(C2CCCCC2)n1C | > 100 µM | > 99.5 µM |
| O=C(Nc1ccc2c(c1)CNCCC2)c1cc(Cl)cc2[nH]ncc12 | 62.4 µM and 45.8 µM | 42.5 µM |
| O=C(Nc1ccc2c(c1)CNC2)c1cncc(-c2ccccc2)c1 | > 100 µM | > 99.5 µM |
| O=C(O)C1CCC2(CC1)CC(Cc1c[nH]c3ccc(Cl)cc13)C2 (configuration not stated) | 31.4 µM | 59.2 µM |
| Cc1cc(-c2ccc3[nH]c(C(=O)O)cc3c2)c(=O)n(Cc2ccccc2)c1 | > 100 µM | > 99.5 µM |
| N#Cc1ccc2[nH]cc(Cc3ccc(-c4nnn[nH]4)cc3)c2c1 | 83.8 µM | > 99.5 µM |
| O=C(Nc1ccc2c(c1)CNC2)c1c[nH]c2ncc(F)cc12 | > 100 µM | > 99.5 µM |
| O=C(O)Cc1cc2c(c(Cc3c[nH]c4ccc(Cl)cc34)c1)OCC2 | > 100 µM | > 99.5 µM |
| CCOCCCN1Cc2ccc(NC(=O)c3cc(Cl)cc4[nH]ncc34)cc2C1 | > 100 µM | > 99.5 µM |
| O=C(c1cc(Cl)cc2[nH]ncc12)N1C[C@H]2CNC[C@H]2C1 | > 100 µM | > 99.5 µM |
| Cn1nc(C(=O)Nc2ccc3c(c2)CNC3)c2cc(Br)ccc21 | > 100 µM | 89.7 µM |
| O=C(Nc1ccc2c(c1)CN(CC(F)F)C2)c1cc(Cl)cc2[nH]ncc12 | > 100 µM | 58.7 µM |
| O=C(Nc1ccc2c(c1)CNC2)c1cc(C(F)(F)F)cc2[nH]ccc12 | > 100 µM | > 99.5 µM |
| CNC(=O)[C@H](Nc1ccc2c(c1)CNC2)c1cc(Cl)cc2[nH]ncc12 | > 100 µM | > 99.5 µM |
| NCc1cc(NC(=O)c2cc(Cl)cc(NC(=O)OCc3ccccc3)c2)cc(C2=CC[C@H](C(=O)O)C2)c1 | > 100 µM | > 99.5 µM |
